Reference: the NIST ThermoML archive (doi:10.1021/je9004992)

Assay: molar heat capacity at constant pressure
Settings: Liquid, Small sample (50 mg) DSC

CCCCn1cc[n+](C)c1.F[B-](F)(F)F [1-butyl-3-methylimidazolium tetrafluoroborate]
molar heat capacity at constant pressure [J/K/mol]
Settings | 283.15 K | 288.15 K | 293.15 K | 298.15 K | 303.15 K | 308.15 K | 313.15 K | 318.15 K | 323.15 K
100 kPa | 360.25 | 362.17 | 364.16 | 366.2 | 368.3 | 370.45 | 372.67 | 374.95 | 377.29
2000 kPa | 360.28 | 362.2 | 364.17 | 366.21 | 368.31 | 370.47 | 372.69 | 374.97 | 377.31
4000 kPa | 360.31 | 362.22 | 364.19 | 366.23 | 368.33 | 370.49 | 372.71 | 374.99 | 377.34
6000 kPa | 360.34 | 362.24 | 364.21 | 366.25 | 368.34 | 370.5 | 372.73 | 375.01 | 377.36
8000 kPa | 360.37 | 362.27 | 364.23 | 366.26 | 368.36 | 370.52 | 372.74 | 375.03 | 377.39
10000 kPa | 360.39 | 362.29 | 364.25 | 366.28 | 368.37 | 370.53 | 372.76 | 375.05 | 377.41
12000 kPa | 360.42 | 362.31 | 364.27 | 366.3 | 368.39 | 370.55 | 372.78 | 375.08 | 377.44
14000 kPa | 360.45 | 362.34 | 364.29 | 366.31 | 368.4 | 370.57 | 372.8 | 375.1 | 377.47
20000 kPa | 360.54 | 362.4 | 364.35 | 366.36 | 368.45 | 370.61 | 372.85 | 375.16 | 377.54
30000 kPa | 360.68 | 362.52 | 364.44 | 366.45 | 368.53 | 370.69 | 372.94 | 375.26 | 377.67
40000 kPa | 360.82 | 362.64 | 364.54 | 366.53 | 368.61 | 370.77 | 373.03 | 375.37 | 377.8
50000 kPa | 360.96 | 362.75 | 364.64 | 366.61 | 368.69 | 370.85 | 373.12 | 375.47 | 377.93
60000 kPa | 361.11 | 362.87 | 364.73 | 366.7 | 368.77 | 370.93 | 373.21 | 375.58 | 378.05
